Results taken from patent US20250333424A1, “ANTIVIRAL COMPOUNDS” (Gilead Sciences, Inc., priority 2024, published 2025).

Test system: monocytic THP1 cells infected with HIV VSV-G pseudotyped GFP-NEF reporter virus
Experiment: cells
Type: cell-based
Details: Human immunodeficiency virus 1, THP-1, 24 h

Row | Structure (SMILES) | EC50 [nM]
1 | Cc1cc(/C=C/C#N)cc(C)c1Oc1nc(NC23CC(C#N)(C2)C3)nc2c1[C@@H](C)N(c1cnn(C)c1)C2=O [Compound 313, (R,E)-3-((4-(4-(2-cyanovinyl)-2,6-dimethylphenoxy)-5-methyl-6-(1-methyl-1H-pyrazol-4-yl)-7-oxo-6,7-dihydro-5H-pyrrolo[3,4-d]pyrimidin-2-yl)amino)bicyclo[1.1.1]pentane-1-carbonitrile] | 468
2 | Cc1cc(/C=C/C#N)cc(C)c1Oc1nc(NC23CC(C#N)(C2)C3)nc2c1C1(C)OCCCN1C2=O (stereo not drawn) [Compound 314, (E)-3-((4-(4-(2-cyanovinyl)-2,6-dimethylphenoxy)-4b-methyl-10-oxo-4b,7,8,10-tetrahydro-6H-pyrimido[5′,4′:3,4]pyrrolo[2,1-b][1,3]oxazin-2-yl)amino)bicyclo[1.1.1]pentane-1-carbonitrile] | 25.3
3 | Cc1cc(/C=C/C#N)cc(C)c1Oc1nc(NC23CC(C#N)(C2)C3)nc2c1C(C)N(CC#N)C2=O (stereo not drawn) [Compound 315, (E)-3-((6-(cyanomethyl)-4-(4-(2-cyanovinyl)-2,6-dimethylphenoxy)-5-methyl-7-oxo-6,7-dihydro-5H-pyrrolo[3,4-d]pyrimidin-2-yl)amino)bicyclo[1.1.1]pentane-1-carbonitrile] | 188
4 | Cc1cc(/C=C/C#N)cc(C)c1Oc1nc(NC23CC(C#N)(C2)C3)nc2c1C(C)(O)N(CC#N)C2=O (stereo not drawn) [Compound 316, (E)-3-((6-(cyanomethyl)-4-(4-(2-cyanovinyl)-2,6-dimethylphenoxy)-5-hydroxy-5-methyl-7-oxo-6,7-dihydro-5H-pyrrolo[3,4-d]pyrimidin-2-yl)amino)bicyclo[1.1.1]pentane-1-carbonitrile] | 77.5
5 | CCc1cc(/C=C/C#N)cc(Cl)c1Oc1nc(NC23CC(C#N)(C2)C3)nc2[nH]nc(C)c12 [Example 1, (E)-3-((4-(2-chloro-4-(2-cyanovinyl)-6-ethylphenoxy)-3-methyl-1H-pyrazolo[3,4-d]pyrimidin-6-yl)amino)bicyclo[1.1.1]pentane-1-carbonitrile] | 46.7
6 | Cc1cc(/C=C/C#N)cc(C)c1Oc1nc(NC23CC(C#N)(C2)C3)nc2c1C1(C)OCC3(CCC3)CN1C2=O (stereo not drawn) [Example 198, (E)-3-((4′-(4-(2-cyanovinyl)-2,6-dimethylphenoxy)-4b′-methyl-10′-oxo-4b′,10′-dihydro-6′H,8′H-spiro[cyclobutane-1,7′-pyrimido[5′,4′:3,4]pyrrolo[2,1-b][1,3]oxazin]-2′-yl)amino)bicyclo[1.1.1]pentane-1-carbonitrile] | 115
7 | Cc1cc(/C=C/C#N)cc(C)c1Oc1nc(NC23CC(C#N)(C2)C3)nc2c1C1(C)OCC3(COC3)CN1C2=O (stereo not drawn) [Example 199, (E)-3-((4′-(4-(2-cyanovinyl)-2,6-dimethylphenoxy)-4b′-methyl-10′-oxo-4b′,10′-dihydro-6′H,8′H-spiro[oxetane-3,7′-pyrimido[5′,4′:3,4]pyrrolo[2,1-b][1,3]oxazin]-2′-yl)amino)bicyclo[1.1.1]pentane-1-carbonitrile] | 49
8 | Cc1cc(/C=C/C#N)cc(C)c1Oc1nc(NC23CC(C#N)(C2)C3)nc2c1C1(C)OCC3(CCOCC3)CN1C2=O (stereo not drawn) [Example 200, (E)-3-((4′-(4-(2-cyanovinyl)-2,6-dimethylphenoxy)-4b′-methyl-10′-oxo-2,3,4b′,5,6,10′-hexahydro-6′H,8′H-spiro[pyran-4,7′-pyrimido[5′,4′:3,4]pyrrolo[2,1-b][1,3]oxazin]-2′-yl)amino)bicyclo[1.1.1]pentane-1-carbonitrile] | 175
9 | Cc1cc(/C=C/C#N)cc(C)c1Oc1nc(NC23CC(C#N)(C2)C3)nc2c1C1(C)OC[C@@H](F)CN1C2=O (stereo partly drawn) [Example 201, 3-(((7S)-4-(4-((E)-2-cyanovinyl)-2,6-dimethylphenoxy)-7-fluoro-4b-methyl-10-oxo-4b,7,8,10-tetrahydro-6H-pyrimido[5′,4′:3,4]pyrrolo[2,1-b][1,3]oxazin-2-yl)amino)bicyclo[1.1.1]pentane-1-carbonitrile] | 88.6
10 | Cc1cc(/C=C/C#N)cc(C)c1Oc1nc(NC23CC(C#N)(C2)C3)nc2c1C1(C)OC[C@H](F)CN1C2=O (stereo partly drawn) [Example 202, 3-(((7R)-4-(4-((E)-2-cyanovinyl)-2,6-dimethylphenoxy)-7-fluoro-4b-methyl-10-oxo-4b,7,8,10-tetrahydro-6H-pyrimido[5′,4′:3,4]pyrrolo[2,1-b][1,3]oxazin-2-yl)amino)bicyclo[1.1.1]pentane-1-carbonitrile] | 18.9
11 | COCCN1C(=O)c2nc(NC34CC(C#N)(C3)C4)nc(Oc3c(C)cc(/C=C/C#N)cc3C)c2C1C (stereo not drawn) [Example 203, (E)-3-((4-(4-(2-cyanovinyl)-2,6-dimethylphenoxy)-6-(2-methoxyethyl)-5-methyl-7-oxo-6,7-dihydro-5H-pyrrolo[3,4-d]pyrimidin-2-yl)amino)bicyclo[1.1.1]pentane-1-carbonitrile] | 27.5
12 | CCN1C(=O)c2nc(NC34CC(C#N)(C3)C4)nc(Oc3c(C)cc(/C=C/C#N)cc3C)c2C1C (stereo not drawn) [Example 204, (E)-3-((4-(4-(2-cyanovinyl)-2,6-dimethylphenoxy)-6-ethyl-5-methyl-7-oxo-6,7-dihydro-5H-pyrrolo[3,4-d]pyrimidin-2-yl)amino)bicyclo[1.1.1]pentane-1-carbonitrile] | 23.4
13 | C=CCN1C(=O)c2nc(NC34CC(C#N)(C3)C4)nc(Oc3c(C)cc(/C=C/C#N)cc3C)c2C1C (stereo not drawn) [Example 205, (E)-3-((6-allyl-4-(4-(2-cyanovinyl)-2,6-dimethylphenoxy)-5-methyl-7-oxo-6,7-dihydro-5H-pyrrolo[3,4-d]pyrimidin-2-yl)amino)bicyclo[1.1.1]pentane-1-carbonitrile] | 42.7
14 | Cc1cc(/C=C/C#N)cc(C)c1Oc1nc(NC23CC(C#N)(C2)C3)nc2c1C(C)N(C(C)C)C2=O (stereo not drawn) [Example 206, (E)-3-((4-(4-(2-cyanovinyl)-2,6-dimethylphenoxy)-6-isopropyl-5-methyl-7-oxo-6,7-dihydro-5H-pyrrolo[3,4-d]pyrimidin-2-yl)amino)bicyclo[1.1.1]pentane-1-carbonitrile] | 280
15 | Cc1cc(/C=C/C#N)cc(C)c1Oc1nc(NC23CC(C#N)(C2)C3)nc2c1C(C)N(CCC(F)(F)F)C2=O (stereo not drawn) [Example 207, (E)-3-((4-(4-(2-cyanovinyl)-2,6-dimethylphenoxy)-5-methyl-7-oxo-6-(3,3,3-trifluoropropyl)-6,7-dihydro-5H-pyrrolo[3,4-d]pyrimidin-2-yl)amino)bicyclo[1.1.1]pentane-1-carbonitrile] | 70.3
16 | Cc1cc(/C=C/C#N)cc(C)c1Oc1nc(NC23CC(C#N)(C2)C3)nc2c1C(C)N(C1COC1)C2=O (stereo not drawn) [Example 208, (E)-3-((4-(4-(2-cyanovinyl)-2,6-dimethylphenoxy)-5-methyl-6-(oxetan-3-yl)-7-oxo-6,7-dihydro-5H-pyrrolo[3,4-d]pyrimidin-2-yl)amino)bicyclo[1.1.1]pentane-1-carbonitrile] | 28.8
17 | Cc1cc(/C=C/C#N)cc(C)c1Oc1nc(NC23CC(C#N)(C2)C3)nc2c1C(C)N(CCc1cn(C)cn1)C2=O (stereo not drawn) [Example 209, (E)-3-((4-(4-(2-cyanovinyl)-2,6-dimethylphenoxy)-5-methyl-6-(2-(1-methyl-1H-imidazol-4-yl)ethyl)-7-oxo-6,7-dihydro-5H-pyrrolo[3,4-d]pyrimidin-2-yl)amino)bicyclo[1.1.1]pentane-1-carbonitrile] | 57.7
18 | Cc1cc(/C=C/C#N)cc(C)c1Oc1nc(NC23CC(C#N)(C2)C3)nc2c1C(C)N(CC1CC1)C2=O (stereo not drawn) [Example 210, (E)-3-((4-(4-(2-cyanovinyl)-2,6-dimethylphenoxy)-6-(cyclopropylmethyl)-5-methyl-7-oxo-6,7-dihydro-5H-pyrrolo[3,4-d]pyrimidin-2-yl)amino)bicyclo[1.1.1]pentane-1-carbonitrile] | 125
19 | Cc1cc(/C=C/C#N)cc(C)c1Oc1nc(NC23CC(C#N)(C2)C3)nc2c1C(C)N(CCc1cnn(C)c1)C2=O (stereo not drawn) [Example 211, (E)-3-((4-(4-(2-cyanovinyl)-2,6-dimethylphenoxy)-5-methyl-6-(2-(1-methyl-1H-pyrazol-4-yl)ethyl)-7-oxo-6,7-dihydro-5H-pyrrolo[3,4-d]pyrimidin-2-yl)amino)bicyclo[1.1.1]pentane-1-carbonitrile] | 54.5
20 | Cc1cc(/C=C/C#N)cc(C)c1Oc1nc(NC23CC(C#N)(C2)C3)nc2c1C(C)N(Cc1ccnn1C)C2=O (stereo not drawn) [Example 212, (E)-3-((4-(4-(2-cyanovinyl)-2,6-dimethylphenoxy)-5-methyl-6-((1-methyl-1H-pyrazol-5-yl)methyl)-7-oxo-6,7-dihydro-5H-pyrrolo[3,4-d]pyrimidin-2-yl)amino)bicyclo[1.1.1]pentane-1-carbonitrile] | 47.1
21 | Cc1cc(/C=C/C#N)cc(C)c1Oc1nc(NC23CC(C#N)(C2)C3)nc2c1C(C)N(Cc1nccn1C)C2=O (stereo not drawn) [Example 213, (E)-3-((4-(4-(2-cyanovinyl)-2,6-dimethylphenoxy)-5-methyl-6-((1-methyl-1H-imidazol-2-yl)methyl)-7-oxo-6,7-dihydro-5H-pyrrolo[3,4-d]pyrimidin-2-yl)amino)bicyclo[1.1.1]pentane-1-carbonitrile] | 43.9
22 | Cc1cc(/C=C/C#N)cc(C)c1Oc1nc(NC23CC(C#N)(C2)C3)nc2c1C(C)N(CCN1CCOCC1)C2=O (stereo not drawn) [Example 214, (E)-3-((4-(4-(2-cyanovinyl)-2,6-dimethylphenoxy)-5-methyl-6-(2-morpholinoethyl)-7-oxo-6,7-dihydro-5H-pyrrolo[3,4-d]pyrimidin-2-yl)amino)bicyclo[1.1.1]pentane-1-carbonitrile] | 59.1
23 | Cc1cc(/C=C/C#N)cc(C)c1Oc1nc(NC23CC(C#N)(C2)C3)nc2c1C(C)N(C1CCOCC1)C2=O (stereo not drawn) [Example 215, (E)-3-((4-(4-(2-cyanovinyl)-2,6-dimethylphenoxy)-5-methyl-7-oxo-6-(tetrahydro-2H-pyran-4-yl)-6,7-dihydro-5H-pyrrolo[3,4-d]pyrimidin-2-yl)amino)bicyclo[1.1.1]pentane-1-carbonitrile] | 109
24 | Cc1cc(/C=C/C#N)cc(C)c1Oc1nc(NC23CC(C#N)(C2)C3)nc2c1C(C)N(C1CCC1)C2=O (stereo not drawn) [Example 216, (E)-3-((4-(4-(2-cyanovinyl)-2,6-dimethylphenoxy)-6-cyclobutyl-5-methyl-7-oxo-6,7-dihydro-5H-pyrrolo[3,4-d]pyrimidin-2-yl)amino)bicyclo[1.1.1]pentane-1-carbonitrile] | 77.8
